Experimental data as given in ChEMBL document CHEMBL1687857, “Stereumins H-J, stereumane-type sesquiterpenes from the fungus Stereum sp” (J Nat Prod, 2011).
Active and inactive are the calls of the source.

What was measured:
HL-60 = experiment: Cytotoxicity against human HL60 cells at 40 uM by MTT assay; format: functional, cell-based
Candida albicans = experiment: Antimicrobial activity against Candida albicans at 50 ug/ml by disk diffusion method; format: functional, organism-based
Panagrellus redivivus = experiment: Antinematodal activity against Panagrellus redivivus at 100 ug/ml by disk diffusion method; format: functional, organism-based
A549 = experiment: Cytotoxicity against human A549 cells at 40 uM by MTT assay; format: functional, cell-based
Escherichia coli = experiment: Antimicrobial activity against Escherichia coli at 50 ug/ml by disk diffusion method; format: functional, organism-based
Staphylococcus aureus = experiment: Antimicrobial activity against Staphylococcus aureus at 50 ug/ml by disk diffusion method; format: functional, organism-based
SMMC-7721 = experiment: Cytotoxicity against human SMMC7721 cells at 40 uM by MTT assay; format: functional, cell-based

C=C1[C@H](O)[C@@H]2[C@H]3[C@H](CC[C@]2(C)O)[C@@H](C)CC(=O)[C@@]13O
inactive: Activity (HL-60) | inhibition (Candida albicans) | Activity (Panagrellus redivivus) | Activity (A549) | inhibition (Escherichia coli) | inhibition (Staphylococcus aureus) | Activity (SMMC-7721)

C=C1[C@@H](O)[C@@H]2[C@H]3[C@H](CC[C@@]2(C)O)[C@@H](C)CC(=O)[C@@]13O
inactive: Activity (HL-60) | inhibition (Candida albicans) | Activity (Panagrellus redivivus) | Activity (A549) | inhibition (Escherichia coli) | inhibition (Staphylococcus aureus) | Activity (SMMC-7721)

C=C1[C@H](O)[C@@H]2[C@H]3[C@H](CC[C@]2(C)O)[C@@H](C)C[C@H](O)[C@@]13O
inactive: Activity (HL-60) | inhibition (Candida albicans) | Activity (Panagrellus redivivus) | Activity (A549) | inhibition (Escherichia coli) | inhibition (Staphylococcus aureus) | Activity (SMMC-7721)
